Values joined by “and” are separate entries in the source; they are usually repeats but may differ in a detail not shown here. Equal entries are not always repeated.
Columns and labels:
[1] = Colorimetric alkylation rate constant assay with TNB^2− as non-specific thiol; format: physicochemical; design: second-order: unit not given here; conditions: for remaining [B]: in µM
[2] = Colorimetric alkylation rate constant assay with thiol N1; format: physicochemical; conditions: for remaining [A]: N1 from calibration curve (N1 in uM); for remaining [A] / remaining [B]: in µM
[3] = Time 2891 sec, [B]0 = 250, Replicates 1-3
[4] = Time 3071 sec, [B]0 = 250, Replicates 1-3
[5] = Time 3252 sec, [B]0 = 250, Replicates 1-3
[6] = Time 3433 sec, [B]0 = 250, Replicates 1-3
[7] = Time 3613 sec, [B]0 = 250, Replicates 1-3

- remaining [B] ([1]; Replicate 1, 723 sec, [B]0 = 250): 244.563
- remaining [B] ([1]; Replicate 1, 903 sec, [B]0 = 250): 244.311
- remaining [B] ([1]; Replicate 1, 1084 sec, [B]0 = 250): 243.946
- remaining [B] ([1]; Replicate 1, 1265 sec, [B]0 = 250): 243.644
- remaining [B] ([1]; Replicate 1, 1445 sec, [B]0 = 250): 243.291
- remaining [B] ([1]; Replicate 1, 1626 sec, [B]0 = 250): 242.976
- remaining [B] ([1]; Replicate 1, 1806 sec, [B]0 = 250): 242.497
- remaining [B] ([1]; Replicate 1, 1988 sec, [B]0 = 250): 242.245
- remaining [B] ([1]; Replicate 1, 2168 sec, [B]0 = 250): 242.005
- remaining [B] ([1]; Replicate 1, 2349 sec, [B]0 = 250): 241.552
- remaining [B] ([1]; Replicate 1, 2530 sec, [B]0 = 250): 241.262
- remaining [B] ([1]; Replicate 1, 2710 sec, [B]0 = 250): 240.985
- remaining [B] ([1]; Replicate 2, 542 sec, [B]0=250): 244.808
- remaining [B] ([1]; Replicate 2, 723 sec, [B]0=250): 244.493
- remaining [B] ([1]; Replicate 2, 903 sec, [B]0=250): 244.204
- remaining [B] ([1]; Replicate 2, 1084 sec, [B]0=250): 243.889
- remaining [B] ([1]; Replicate 2, 1265 sec, [B]0=250): 243.586
- remaining [B] ([1]; Replicate 2, 1445 sec, [B]0=250): 243.259
- remaining [B] ([1]; Replicate 2, 1626 sec, [B]0=250): 242.931
- remaining [B] ([1]; Replicate 2, 1806 sec, [B]0=250): 242.666
- remaining [B] ([1]; Replicate 2, 1988 sec, [B]0=250): 242.326
- remaining [B] ([1]; Replicate 2, 2168 sec, [B]0=250): 242.036
- remaining [B] ([1]; Replicate 2, 2349 sec, [B]0=250): 241.734
- remaining [B] ([1]; Replicate 2, 2530 sec, [B]0=250): 241.457
- remaining [B] ([1]; Replicate 2, 2710 sec, [B]0=250): 241.142
- remaining [B] ([1]; Replicate 3, 723 sec, [B]0=250): 244.853
- remaining [B] ([1]; Replicate 3, 903 sec, [B]0=250): 244.526
- remaining [B] ([1]; Replicate 3, 1084 sec, [B]0=250): 244.173
- remaining [B] ([1]; Replicate 3, 1265 sec, [B]0=250): 243.82
- remaining [B] ([1]; Replicate 3, 1445 sec, [B]0=250): 243.568
- remaining [B] ([1]; Replicate 3, 1626 sec, [B]0=250): 243.24
- remaining [B] ([1]; Replicate 3, 1806 sec, [B]0=250): 242.913
- remaining [B] ([1]; Replicate 3, 1988 sec, [B]0=250): 242.686
- remaining [B] ([1]; Replicate 3, 2168 sec, [B]0=250): 242.333
- remaining [B] ([1]; Replicate 3, 2349 sec, [B]0=250): 241.955
- remaining [B] ([1]; Replicate 3, 2530 sec, [B]0=250): 241.627
- remaining [B] ([1]; Replicate 3, 2710 sec, [B]0=250): 241.35
- remaining [B] [1, 3]: 241.06 and 240.569 and 240.801
- remaining [B] [1, 4]: 240.783 and 240.304 and 240.512
- remaining [B] [1, 5]: 240.481 and 240.077 and 240.209
- remaining [B] [1, 6]: 240.065 and 239.636 and 239.894
- remaining [B] [1, 7]: 239.851
- remaining [A] ([2]; Replicate 1, time 576 sec): 79.3821
- remaining [B] ([2]; Replicate 1, time 576 sec, [B]0 = 250): 225.262
- remaining [A] ([2]; Replicate 1, time 606 sec): 78.3561
- remaining [B] ([2]; Replicate 1, time 606 sec, [B]0 = 250): 224.236
- remaining [A] ([2]; Replicate 2, time 576 sec): 78.9353
- remaining [B] ([2]; Replicate 2, time 576 sec, [B]0=250): 225.794
- remaining [A] ([2]; Replicate 2, time 606 sec): 77.6031
- remaining [B] ([2]; Replicate 2, time 606 sec, [B]0=250): 224.461
- remaining [A] ([2]; Replicate 3, time 576 sec): 80.3332
- remaining [B] ([2]; Replicate 3, time 576 sec, [B]0=250): 225.786
- remaining [A] ([2]; Replicate 3, time 606 sec): 79.3051
- remaining [B] ([2]; Replicate 3, time 606 sec, [B]0=250): 224.758
- remaining [B] ([2]; time 0 sec, [B]0 = 250, replicates 1-3): 246.537 and 247.093 and 245.89
- remaining [B] ([2]; time 30 sec, [B]0 = 250, replicates 1-3): 245.319 and 244.842 and 244.643
- remaining [B] ([2]; time 60 sec, [B]0 = 250, replicates 1-3): 243.453 and 243.816 and 242.942
- remaining [B] ([2]; time 91 sec, [B]0 = 250, replicates 1-3): 242.316 and 242.334 and 241.723
- remaining [B] ([2]; time 121 sec, [B]0 = 250, replicates 1-3): 241.072 and 241.108 and 240.278
- remaining [B] ([2]; time 151 sec, [B]0 = 250, replicates 1-3): 240.152 and 239.968 and 239.257
- remaining [B] ([2]; time 182 sec, [B]0 = 250, replicates 1-3): 239.232 and 238.714 and 238.265
- remaining [B] ([2]; time 212 sec, [B]0 = 250, replicates 1-3): 238.15 and 237.631 and 237.245
- remaining [B] ([2]; time 242 sec, [B]0 = 250, replicates 1-3): 236.96 and 236.491 and 236.366
- remaining [B] ([2]; time 273 sec, [B]0 = 250, replicates 1-3): 235.85 and 235.38 and 235.431
- remaining [B] ([2]; time 303 sec, [B]0 = 250, replicates 1-3): 234.308 and 234.268 and 234.354
- remaining [B] ([2]; time 333 sec, [B]0 = 250, replicates 1-3): 233.361 and 233.157 and 233.277
- remaining [B] ([2]; time 364 sec, [B]0 = 250, replicates 1-3): 232.279 and 232.188 and 232.341
- remaining [B] ([2]; time 394 sec, [B]0 = 250, replicates 1-3): 231.197 and 231.247 and 230.981
- remaining [B] ([2]; time 424 sec, [B]0 = 250, replicates 1-3): 230.602 and 230.05 and 230.442
- remaining [B] ([2]; time 454 sec, [B]0 = 250, replicates 1-3): 229.357 and 229.309 and 229.478
- remaining [B] ([2]; time 485 sec, [B]0 = 250, replicates 1-3): 228.681 and 228.084 and 229.195
- remaining [B] ([2]; time 515 sec, [B]0 = 250, replicates 1-3): 227.112 and 227.086 and 227.097
- remaining [B] ([2]; time 545 sec, [B]0 = 250, replicates 1-3): 226.462 and 226.317 and 225.935
Compound: O=C(CCl)Nc1ccc(F)cc1 [Compound C3]
- second-order [1, 3]: 0.0003934 and 0.0003816 and 0.000404
- second-order [1, 4]: 0.0004067 and 0.0003942 and 0.0004162
- second-order [1, 5]: 0.0004206 and 0.0004081 and 0.0004267
- second-order [1, 6]: 0.0004352 and 0.0004273 and 0.0004471
- second-order [1, 7]: 0.0004498 and 0.0004372 and 0.0004612
- second-order ([1]; Time 3794 sec, [B]0 = 250, Replicates 1-3): 0.0004633 and 0.0004542 and 0.0004754
- second-order ([1]; Time 3974 sec, [B]0 = 250, Replicates 1-3): 0.0004793 and 0.0004648 and 0.0004891
- second-order ([1]; Time 4155 sec, [B]0 = 250, Replicates 1-3): 0.0004918 and 0.0004819 and 0.0004992
- second-order ([1]; Time 4336 sec, [B]0 = 250, Replicates 1-3): 0.0005073 and 0.0004944 and 0.000519
- second-order ([1]; Time 4516 sec, [B]0 = 250, Replicates 1-3): 0.0005217 and 0.00051 and 0.0005352
- second-order ([1]; Time 4697 sec, [B]0 = 250, Replicates 1-3): 0.0005368 and 0.0005292 and 0.0005485
- second-order ([1]; Time 4878 sec, [B]0 = 250, Replicates 1-3): 0.0005501 and 0.00054 and 0.0005589
- second-order ([1]; Time 5058 sec, [B]0 = 250, Replicates 1-3): 0.0005616 and 0.0005558 and 0.0005759
- second-order ([1]; Time 5239 sec, [B]0 = 250, Replicates 1-3): 0.0005799 and 0.0005704 and 0.0005876
- second-order ([1]; Time 5419 sec, [B]0 = 250, Replicates 1-3): 0.0005928 and 0.0005784 and 0.0006067
- second-order ([1]; Time 5600 sec, [B]0 = 250, Replicates 1-3): 0.000607 and 0.0005999 and 0.0006197
- second-order ([1]; Time 5781 sec, [B]0 = 250, Replicates 1-3): 0.0006238 and 0.0006104 and 0.000634
- second-order ([1]; Time 5961 sec, [B]0 = 250, Replicates 1-3): 0.0006375 and 0.0006271 and 0.0006509
- second-order ([2]; Replicate 1, time 576 sec, second-order plot value): 0.001145
- second-order ([2]; Replicate 1, time 606 sec, second-order plot value): 0.001203
- second-order ([2]; Replicate 2, time 576 sec, second-order plot value): 0.001128
- second-order ([2]; Replicate 2, time 606 sec, second-order plot value): 0.001203
- second-order ([2]; Replicate 3, time 576 sec, second-order plot value): 0.001111
- second-order ([2]; Replicate 3, time 606 sec, second-order plot value): 0.001168
- second-order ([2]; time 0 sec, replicates 1-3): 0.000164 and 0.0001357 and 0.0001139
- second-order ([2]; time 30 sec, replicates 1-3): 0.0002157 and 0.000185 and 0.0002054
- second-order ([2]; time 60 sec, replicates 1-3): 0.0002877 and 0.0002622 and 0.000248
- second-order ([2]; time 91 sec, replicates 1-3): 0.0003403 and 0.0003102 and 0.0003108
- second-order ([2]; time 121 sec, replicates 1-3): 0.0004041 and 0.0003637 (2×)
- second-order ([2]; time 151 sec, replicates 1-3): 0.0004499 and 0.0004039 and 0.0004137
- second-order ([2]; time 182 sec, replicates 1-3): 0.0004951 and 0.0004446 and 0.0004698
- second-order ([2]; time 212 sec, replicates 1-3): 0.0005423 and 0.0004932 and 0.0005191
- second-order ([2]; time 242 sec, replicates 1-3): 0.0005835 and 0.0005476 and 0.0005718
- second-order ([2]; time 273 sec, replicates 1-3): 0.0006281 and 0.0005992 and 0.0006241
- second-order ([2]; time 303 sec, replicates 1-3): 0.0006802 and 0.0006724 and 0.0006773
- second-order ([2]; time 333 sec, replicates 1-3): 0.0007331 and 0.0007182 and 0.0007315
- second-order ([2]; time 364 sec, replicates 1-3): 0.0007799 and 0.0007714 and 0.0007795
- second-order ([2]; time 394 sec, replicates 1-3): 0.0008491 and 0.0008256 and 0.0008268
- second-order ([2]; time 424 sec, replicates 1-3): 0.000877 and 0.0008557 and 0.000888
- second-order ([2]; time 454 sec, replicates 1-3): 0.0009274 and 0.0009198 and 0.0009265
- second-order ([2]; time 485 sec, replicates 1-3): 0.0009424 and 0.0009551 and 0.0009912
- second-order ([2]; time 515 sec, replicates 1-3): 0.001056 and 0.001039 and 0.001045
- second-order ([2]; time 545 sec, replicates 1-3): 0.00112 and 0.001074 and 0.001087
